How the values were obtained:
MMP10 = experiment: EMT on target screen, MMP10 read-out; format: cell-based, human; details: for OT MMP10 Screen Z-score 2: as E13, duplicate 2; for OT MMP10 Screen Z-score 1: robust Z-score, HBEC donor Br299, duplicate 1, cut-off Z ≦ −1.25
Fibronectin (FN) = experiment: EMT on target screen, FN read-out; format: cell-based, human; details: for OT FN Screen Z-score 2: as E11, duplicate 2; for Both (shRNA is a hit again in both OT assays, Yes/No): on target validation, Table 16; for OT FN Screen Z-score 1: robust Z-score, HBEC donor Br299, duplicate 1, cut-off Z ≦ −1.25

Substance | OT MMP10 Screen Z-score 2 (MMP10) | OT MMP10 Screen Z-score 1 (MMP10) | OT CTB assay Z-score 1 (HBEC) | OT CTB assay Z-score 2 (HBEC) | OT FN Screen Z-score 2 (Fibronectin (FN)) | Both (shRNA is a hit again in both OT assays, Yes/No) (Fibronectin (FN)) | OT FN Screen Z-score 1 (Fibronectin (FN))
46 (ACTTCTGAGAGGTCACAGC; chemistry not given here) [compound 46] | -2.42 | -2.20 | -2.43 | -5.13 | -7.86 | yes | -8.84
47 (GAACACGTACAAAGTCATT; chemistry not given here) [compound 47] | -6.24 | -11.24 | -7.55 | -4.92 | -5.03 | no | -4.88
48 (GGATGGAGTTGGGAATCAC; chemistry not given here) [compound 48] | -2.43 | -2.26 | -1.14 | -3.01 | -3.44 | yes | -3.28
49 (GAGGATGCCATTAAGTATT; chemistry not given here) [compound 49] | 0.87 | 0.57 | -0.78 | -0.88 | -1.84 | no | -1.75
50 (GAGGCAGCCTTGTACTCTT; chemistry not given here) [compound 50] | -0.49 | 1.32 | -0.51 | 2.33 | -4.42 | no | -2.42
51 (GGATCTTGGGTCCTATCCC; chemistry not given here) [compound 51] | -0.23 | -0.02 | -0.73 | -2.03 | -3.08 | no | -2.90
52 (TGAATACTATGTGGGATTC; chemistry not given here) [compound 52] | 0.95 | 1.96 | -3.43 | -3.45 | -3.74 | yes | -3.30
53 (TCAGCTGGGCGCTATGTTC; chemistry not given here) [compound 53] | 0.45 | -0.41 | -3.97 | -4.28 | -2.98 | no | -3.01
54 (GACTGGAAAGCGACGGGTC; chemistry not given here) [compound 54] | 0.94 | 0.62 | -4.02 | -5.83 | -3.15 | no | -3.47
55 (AGGCTCACTTGCCTTTGGC; chemistry not given here) [compound 55] | 0.18 | 0.92 | -4.29 | -8.29 | -6.07 | yes | -4.43
56 (TGATGGTTACCGCAAGATC; chemistry not given here) [compound 56] | -5.05 | -3.35 | 0.64 | -2.23 | -3.69 | yes | -2.74
57 (CCAAACCTGTGTCAACTTC; chemistry not given here) [compound 57] | -1.94 | -0.60 | -1.43 | 0.38 | -3.69 | no | -8.59
58 (GATCCCAGCAGTTATAACA; chemistry not given here) [compound 58] | -3.41 | -3.06 | -4.03 | -2.02 | -6.55 | no | -2.47
59 (TGAAGGTCAAGAAGCCGGC; chemistry not given here) [compound 59] | -1.19 | -1.71 | -6.59 | -4.59 | -8.92 | yes | -6.20
60 (AACCTGGCCATTCAGACCC; chemistry not given here) [compound 60] | -0.06 | -1.88 | -7.10 | -2.00 | -2.96 | yes | -2.56
61 (CAATTCCCAAGGACAGGCT; chemistry not given here) [compound 61] | -2.31 | -2.21 | 0.59 | 0.86 | -1.44 | no | -1.65
62 (CAGATTCCATCTGATGGCC; chemistry not given here) [compound 62] | -2.79 | -2.75 | -3.19 | -2.25 | -5.21 | yes | -4.99
63 (GAATTTCAGAAGTACTGTG; chemistry not given here) [compound 63] | 2.02 | 1.53 | -2.12 | -3.06 | -3.76 | no | -3.62
64 (GTCCAACAGAAGTACGTGC; chemistry not given here) [compound 64] | 1.09 | -0.07 | 1.00 | -1.33 | -2.52 | no | -3.09
65 (GGCCATGATTGAGAAACTC; chemistry not given here) [compound 65] | -3.44 | -5.08 | 1.09 | 1.89 | -4.03 | no | -4.35
66 (GAAGGAGCTACTCATCTTC; chemistry not given here) [compound 66] | 0.70 | -1.93 | -2.25 | -4.39 | -4.82 | yes | -2.81
67 (CAAGAGCGATGCCTATTAC; chemistry not given here) [compound 67] | 0.32 | 1.39 | -3.77 | -3.83 | -2.65 | no | -3.19
68 (CATCAGCTTCCTGCTGGGC; chemistry not given here) [compound 68] | -0.35 | -1.18 | -2.64 | -2.21 | -5.66 | yes | -4.29
69 (GATGGAGCGCTTACACTAC; chemistry not given here) [compound 69] | -3.43 | -4.95 | -3.34 | -1.32 | -5.75 | no | -4.37
70 (GAGTTTGCCTACTCAGAGG; chemistry not given here) [compound 70] | -1.35 | -4.35 | 0.19 | 1.51 | -4.05 | no | -4.52
71 (CACGGCTCTCCTATTTGTC; chemistry not given here) [compound 71] | 0.95 | 0.88 | -5.58 | -4.56 | -1.64 | no | -1.73
72 (GAGTTGGACAGTGGAGGAC; chemistry not given here) [compound 72] | -6.59 | -4.52 | -3.13 | -4.22 | -7.31 | yes | -3.99
